The values that follow come from publication PMC5428509, “Irreversible inhibition of BTK kinase by a novel highly selective inhibitor CHMFL-BTK-11 suppresses inflammatory response in rheumatoid arthritis model” (Scientific Reports, 2017).

Assay in all cases: biochemical
Parameters in all cases: KinomeScan competition binding panel (DiscoveRx), percent of control at 1 uM
What all share (details): read-out: Percent Control

Test [1] addresses T1, ABL1(M351T)-phosphorylated (Homo sapiens, UniProt P00519, M351T).
T1 construct: phosphorylated
In outline: (§1)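 KinomeScan technology used to profile binding across a panel of 456 kinases and mutants.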

In the next test the target is T2, PFTK1 (Homo sapiens, UniProt O94921).
T2 construct: gene CDK14
In outline:
as §1

In test [2] the target is T3, RPS6KA5(Kin.Dom.2-C-terminal) (Homo sapiens, UniProt O75582).
T3 construct: Kin.Dom.2-C-terminal
T3 sequence (O75582 whole entry): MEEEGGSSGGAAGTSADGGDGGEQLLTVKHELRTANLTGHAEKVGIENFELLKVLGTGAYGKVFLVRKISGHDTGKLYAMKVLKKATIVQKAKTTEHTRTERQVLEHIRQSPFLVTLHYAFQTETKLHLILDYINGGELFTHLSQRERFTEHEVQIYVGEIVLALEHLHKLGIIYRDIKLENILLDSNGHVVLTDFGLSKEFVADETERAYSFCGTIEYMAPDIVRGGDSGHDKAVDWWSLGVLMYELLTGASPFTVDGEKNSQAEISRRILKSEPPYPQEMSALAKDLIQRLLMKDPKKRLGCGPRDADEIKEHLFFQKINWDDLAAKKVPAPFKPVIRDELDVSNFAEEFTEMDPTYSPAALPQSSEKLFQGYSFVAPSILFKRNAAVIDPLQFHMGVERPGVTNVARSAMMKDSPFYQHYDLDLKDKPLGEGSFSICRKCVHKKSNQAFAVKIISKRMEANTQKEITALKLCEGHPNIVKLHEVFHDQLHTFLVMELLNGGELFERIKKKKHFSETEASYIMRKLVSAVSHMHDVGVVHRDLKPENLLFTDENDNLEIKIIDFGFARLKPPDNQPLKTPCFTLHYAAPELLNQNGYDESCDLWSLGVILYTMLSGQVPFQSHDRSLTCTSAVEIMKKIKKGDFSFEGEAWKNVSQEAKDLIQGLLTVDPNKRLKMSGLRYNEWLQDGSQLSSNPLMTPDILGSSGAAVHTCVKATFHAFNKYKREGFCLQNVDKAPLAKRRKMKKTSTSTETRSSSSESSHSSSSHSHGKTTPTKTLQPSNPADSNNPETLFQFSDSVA
In outline:
as §1

For a further test, the target named is PRKD1 (Homo sapiens, UniProt Q15139). In outline:
as §1

In the next test the target is T4, ERK3 (Homo sapiens, UniProt Q16659).
T4 construct: gene MAPK6
The procedure, abridged: as §1

The next test deals with MAPKAPK5 (Homo sapiens, UniProt Q8IW41). The procedure, abridged:
as §1

In a further test the target is NEK3 (Homo sapiens, UniProt P51956). In outline: as §1
The next test deals with FER (Homo sapiens, UniProt P16591). The procedure, abridged:
as §1

A further test has as its target CDK3 (Homo sapiens, UniProt Q00526). The procedure, abridged: as §1
The target in the next test is CSNK1G3 (Homo sapiens, UniProt Q9Y6M4). The procedure, abridged:
as §1

A further test concerns the target BMPR1A (Homo sapiens, UniProt P36894). In outline: as §1
The target of the next test is EGFR(T790M) (Homo sapiens, UniProt P00533, T790M). In outline: as §1
Chain of EGFR(T790M) (P00533 whole entry T790M): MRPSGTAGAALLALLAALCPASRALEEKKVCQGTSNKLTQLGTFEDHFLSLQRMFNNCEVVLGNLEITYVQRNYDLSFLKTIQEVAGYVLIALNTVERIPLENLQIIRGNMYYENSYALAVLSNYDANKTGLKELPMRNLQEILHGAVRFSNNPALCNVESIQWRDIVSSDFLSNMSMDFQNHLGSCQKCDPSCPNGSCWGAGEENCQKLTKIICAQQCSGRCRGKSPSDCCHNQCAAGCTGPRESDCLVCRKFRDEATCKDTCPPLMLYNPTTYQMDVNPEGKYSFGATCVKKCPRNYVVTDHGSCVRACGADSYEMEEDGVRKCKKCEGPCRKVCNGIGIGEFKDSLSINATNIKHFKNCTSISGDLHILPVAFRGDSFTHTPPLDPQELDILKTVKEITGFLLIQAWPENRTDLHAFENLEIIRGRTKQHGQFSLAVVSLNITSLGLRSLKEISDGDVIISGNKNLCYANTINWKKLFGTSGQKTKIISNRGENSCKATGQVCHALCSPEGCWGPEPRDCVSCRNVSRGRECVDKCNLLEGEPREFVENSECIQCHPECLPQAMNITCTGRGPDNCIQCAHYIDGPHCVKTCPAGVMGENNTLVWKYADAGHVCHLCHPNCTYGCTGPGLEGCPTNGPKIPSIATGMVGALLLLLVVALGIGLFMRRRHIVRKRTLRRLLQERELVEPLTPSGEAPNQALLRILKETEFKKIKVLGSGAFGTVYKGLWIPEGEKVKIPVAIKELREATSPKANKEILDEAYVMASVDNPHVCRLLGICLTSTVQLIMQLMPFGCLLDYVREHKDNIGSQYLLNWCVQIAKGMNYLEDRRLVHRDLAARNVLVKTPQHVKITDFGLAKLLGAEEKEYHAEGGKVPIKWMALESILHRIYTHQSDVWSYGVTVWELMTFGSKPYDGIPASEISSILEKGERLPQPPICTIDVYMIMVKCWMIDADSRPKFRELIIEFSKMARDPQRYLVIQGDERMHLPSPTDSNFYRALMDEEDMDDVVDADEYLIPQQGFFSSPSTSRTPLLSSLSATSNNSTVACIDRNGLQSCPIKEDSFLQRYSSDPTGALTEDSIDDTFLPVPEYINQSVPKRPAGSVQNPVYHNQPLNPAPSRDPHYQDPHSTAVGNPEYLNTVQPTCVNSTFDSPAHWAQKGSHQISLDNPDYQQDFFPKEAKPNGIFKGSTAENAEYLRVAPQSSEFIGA
For the next test, the target named is MAST1 (Homo sapiens, UniProt Q9Y2H9). The procedure, abridged: as §1
In another test the target is RIOK1 (Homo sapiens, UniProt Q9BRS2). In outline:
as §1

For another test, the target named is KIT (Homo sapiens, UniProt P10721). The procedure, abridged:
as §1

In another test the target is T5, PCTK1 (Homo sapiens, UniProt Q00536).
T5 construct: gene CDK16
The procedure, abridged: as §1

The next test deals with BLK (Homo sapiens, UniProt P51451). In outline:
as §1

A further test addresses CDK9 (Homo sapiens, UniProt P50750). The procedure, abridged: as §1
The target in another test is GRK7 (Homo sapiens, UniProt Q8WTQ7). In outline: as §1
A further test concerns the target PIK3CA(E545A) (Homo sapiens, UniProt P42336, E545A). In outline:
as §1

The target of another test is FGFR1 (Homo sapiens, UniProt P11362). In outline:
as §1

For another test, the target named is T6, HPK1 (Homo sapiens, UniProt Q92918).
T6 construct: gene MAP4K1
T6 sequence (Q92918 whole entry): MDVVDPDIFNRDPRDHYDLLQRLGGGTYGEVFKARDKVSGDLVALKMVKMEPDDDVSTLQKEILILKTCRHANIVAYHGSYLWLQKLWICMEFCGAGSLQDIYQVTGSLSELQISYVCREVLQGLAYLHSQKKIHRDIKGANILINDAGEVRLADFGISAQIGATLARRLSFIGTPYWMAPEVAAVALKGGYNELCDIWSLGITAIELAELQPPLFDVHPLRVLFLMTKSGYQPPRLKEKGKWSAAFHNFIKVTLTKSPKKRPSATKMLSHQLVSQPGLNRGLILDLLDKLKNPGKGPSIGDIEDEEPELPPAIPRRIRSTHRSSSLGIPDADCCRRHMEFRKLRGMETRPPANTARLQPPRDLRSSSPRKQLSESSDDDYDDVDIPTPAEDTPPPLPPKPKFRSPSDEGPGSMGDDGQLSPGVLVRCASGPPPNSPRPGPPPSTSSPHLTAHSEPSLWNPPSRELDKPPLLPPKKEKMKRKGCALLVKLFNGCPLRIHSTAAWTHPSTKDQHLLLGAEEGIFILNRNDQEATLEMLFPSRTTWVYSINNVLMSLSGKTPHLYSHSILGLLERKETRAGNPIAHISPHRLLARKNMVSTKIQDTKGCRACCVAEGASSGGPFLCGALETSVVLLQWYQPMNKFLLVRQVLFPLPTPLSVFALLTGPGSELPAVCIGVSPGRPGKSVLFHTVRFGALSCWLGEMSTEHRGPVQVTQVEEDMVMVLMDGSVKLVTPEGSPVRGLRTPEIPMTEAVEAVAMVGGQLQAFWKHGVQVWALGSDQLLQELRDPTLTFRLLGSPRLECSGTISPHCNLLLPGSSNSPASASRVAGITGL
In outline: as §1

The next test addresses T7, ARK5 (Homo sapiens, UniProt O60285).
T7 construct: gene NUAK1
In outline: as §1

In test [3] the target is T8, RSK3(Kin.Dom.1-N-terminal) (Homo sapiens, UniProt Q15349).
T8 construct: gene RPS6KA2; Kin.Dom.1-N-terminal
The procedure, abridged:
as §1

Each structure is given as a SMILES string.

Chain of RIOK1 (Q9BRS2 whole entry): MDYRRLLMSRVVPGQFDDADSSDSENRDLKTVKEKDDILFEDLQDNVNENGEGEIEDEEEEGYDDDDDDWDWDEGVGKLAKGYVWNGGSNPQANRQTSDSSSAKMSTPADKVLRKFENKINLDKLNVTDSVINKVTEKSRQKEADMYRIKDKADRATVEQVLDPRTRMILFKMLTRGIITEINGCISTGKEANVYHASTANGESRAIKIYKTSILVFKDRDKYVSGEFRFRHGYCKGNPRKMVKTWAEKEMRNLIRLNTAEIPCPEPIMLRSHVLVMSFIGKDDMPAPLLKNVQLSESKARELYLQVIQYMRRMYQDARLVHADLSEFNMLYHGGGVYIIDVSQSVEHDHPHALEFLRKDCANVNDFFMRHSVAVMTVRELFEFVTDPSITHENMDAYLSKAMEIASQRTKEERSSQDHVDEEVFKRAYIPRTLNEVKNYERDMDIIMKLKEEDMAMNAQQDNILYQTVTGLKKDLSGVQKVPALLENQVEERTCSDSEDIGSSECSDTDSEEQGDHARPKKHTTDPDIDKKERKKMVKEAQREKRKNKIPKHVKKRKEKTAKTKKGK
T7 sequence (O60285 whole entry): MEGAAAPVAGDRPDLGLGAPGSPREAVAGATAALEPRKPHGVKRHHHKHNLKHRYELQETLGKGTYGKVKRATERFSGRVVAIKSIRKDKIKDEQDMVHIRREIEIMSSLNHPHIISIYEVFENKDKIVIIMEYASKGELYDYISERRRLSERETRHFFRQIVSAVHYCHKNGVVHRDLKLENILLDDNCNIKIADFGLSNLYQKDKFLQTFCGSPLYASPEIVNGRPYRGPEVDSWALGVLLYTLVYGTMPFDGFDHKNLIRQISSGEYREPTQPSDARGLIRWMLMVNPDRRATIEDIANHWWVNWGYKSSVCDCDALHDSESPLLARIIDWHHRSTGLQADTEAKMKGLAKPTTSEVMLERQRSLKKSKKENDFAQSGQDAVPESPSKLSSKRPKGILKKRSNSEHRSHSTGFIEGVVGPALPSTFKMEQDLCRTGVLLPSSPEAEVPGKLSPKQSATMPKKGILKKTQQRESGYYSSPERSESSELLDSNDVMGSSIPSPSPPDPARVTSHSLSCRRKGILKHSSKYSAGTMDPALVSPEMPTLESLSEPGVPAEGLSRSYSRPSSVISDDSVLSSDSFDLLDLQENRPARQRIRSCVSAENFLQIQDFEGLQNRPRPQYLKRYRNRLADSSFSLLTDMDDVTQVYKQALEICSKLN
Chain of CSNK1G3 (Q9Y6M4 whole entry): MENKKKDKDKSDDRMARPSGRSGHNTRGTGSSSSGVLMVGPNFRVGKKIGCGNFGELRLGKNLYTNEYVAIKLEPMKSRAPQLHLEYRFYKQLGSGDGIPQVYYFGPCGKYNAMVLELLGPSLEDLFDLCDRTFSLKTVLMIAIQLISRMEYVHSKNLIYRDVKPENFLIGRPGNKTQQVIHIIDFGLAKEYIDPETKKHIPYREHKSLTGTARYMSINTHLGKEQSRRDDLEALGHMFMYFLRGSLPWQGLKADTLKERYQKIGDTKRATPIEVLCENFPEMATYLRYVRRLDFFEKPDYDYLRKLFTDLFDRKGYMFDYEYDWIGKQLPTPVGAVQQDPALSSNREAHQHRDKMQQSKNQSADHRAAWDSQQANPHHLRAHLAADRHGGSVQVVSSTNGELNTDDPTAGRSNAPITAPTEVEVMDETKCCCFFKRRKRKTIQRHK
Chain of BMPR1A (P36894 whole entry): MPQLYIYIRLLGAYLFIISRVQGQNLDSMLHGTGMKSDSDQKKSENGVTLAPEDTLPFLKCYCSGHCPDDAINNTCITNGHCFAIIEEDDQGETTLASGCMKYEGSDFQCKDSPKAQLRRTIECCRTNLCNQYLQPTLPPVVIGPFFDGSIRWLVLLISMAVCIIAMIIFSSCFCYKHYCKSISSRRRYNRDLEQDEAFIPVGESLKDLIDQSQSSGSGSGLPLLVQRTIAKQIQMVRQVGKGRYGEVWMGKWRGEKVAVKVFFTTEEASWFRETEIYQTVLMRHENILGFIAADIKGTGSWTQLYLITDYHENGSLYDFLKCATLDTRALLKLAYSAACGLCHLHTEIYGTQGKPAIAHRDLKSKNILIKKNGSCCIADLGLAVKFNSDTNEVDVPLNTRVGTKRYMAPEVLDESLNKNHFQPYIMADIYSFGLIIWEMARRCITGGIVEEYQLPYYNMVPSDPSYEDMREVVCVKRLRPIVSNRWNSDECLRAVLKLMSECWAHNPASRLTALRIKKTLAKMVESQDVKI

With `C=CC(=O)Nc1cc(-n2c(=O)ccc3cnc4ccc(-n5cccn5)cc4c32)ccc1C` [CHMFL-BTK-11], the remaining binding at 1 µM in test [1] came to 72%; on PFTK1 it was 100%; in test [2], 89%; at PRKD1, 94%; on ERK3, 100%; at MAPKAPK5, 100%. The remaining binding at 1 µM is 87% at NEK3; 98% at FER; 100% on CDK3; 100% at CSNK1G3; 100% on BMPR1A; 58% at EGFR(T790M). Besides, the remaining binding at 1 µM was found to be 100% on MAST1; 66% on RIOK1; 100% at KIT; 100% on PCTK1; 30% on BLK; 96% at CDK9. Moreover, the remaining binding at 1 µM on GRK7 was determined as 100%; at PIK3CA(E545A), 76%; at FGFR1, 88%; on HPK1 it was 94%; at ARK5, 100%; in [3] it was 100%.
